The values that follow come from US11753407B2, “Compounds for treating spinal muscular atrophy” (PTC Therapeutics, Inc., priority 2012, dated 2023).

The subject of data set [1] is SMN2 minigene mRNA (SMN2-A minigene) in HEK293H cells. As to the kind of experiment: SMN2 minigene mRNA splicing RT-qPCR assay in cultured cells. It counts as cell-based, human. Particulars: Homo sapiens, HEK293-H; concentration increasing full length SMN2 mRNA 1.5-fold relative to vehicle-treated cells; HEK293H cells with SMN2-A minigene, 24 hours, 7-point concentration data; read-out: EC1.5x for production of full length SMN2 mRNA. The method, boiled down:
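HEK293H cells stably carrying the SMN2-A minigene were treated for 24 h at 37 °C with a 7-point, 3.16-fold dilution series of compound. Multiplex RT-qPCR measured exon 7-containing minigene FL mRNA against GAPDH, expressed relative to vehicle by modified ΔΔCt; the EC1.5× is the concentration giving a 1.5-fold increase.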

The test system of data set [2] is Smn protein in SMA patient fibroblast cells (GM03813). As to the kind of experiment: Smn protein assay in cultured cells (SMN HTRF). The class given is cell-based, human. Particulars: SMA patient fibroblast cells, 48 hours; for EC1.5x for Smn protein expression: 7-point concentration curve, SMN HTRF, concentration producing 1.5 times Smn protein vs DMSO vehicle control; for maximum fold (Fold) increase of Smn protein: 7-point concentration data, fold relative to vehicle control. The method, boiled down:
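SMA patient fibroblasts (5,000 cells/well, DMEM-10% FBS) were treated for 48 h at 37 °C with a 7-point, 3.16-fold dilution series in triplicate. RIPA lysates were probed by HTRF (anti-SMN d2/kryptate, overnight, room temperature), reading 665/620 nm. EC1.5× is the concentration giving 1.5-fold Smn over DMSO vehicle.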

On to `Cc1cn2nc(-c3cc(=O)n4cc(C5CCN(C6CC6)CC5)ccc4n3)cc2c(C)n1` [Compound 641, 7-(1-cyclopropylpiperidin-4-yl)-2-(4,6-dimethylpyrazolo[1,5-a]pyrazin-2-yl)-4H-pyrido[1,2-a]pyrimidin-4-one], for which the melting point lay in the range of 180 to 183 °C. The EC (1.5-fold increase) in data set [1] is under 0.1 µM. Further, in data set [2], the “EC1.5x for Smn protein expression” value was “**** (an EC1.5x≤0.3 μM is indicated by four stars (****))” and the “maximum fold (Fold) increase of Smn protein” value (“maximum fold (Fold) increase” below) is recorded as “***** (a fold increase >1.65 is indicated by five stars (*****))”.
On to `Cc1cn2nc(-c3cc(=O)n4cc(C5CCN(C6CCC6)CC5)ccc4n3)cc2c(C)n1` [Compound 642, 7-(1-cyclobutylpiperidin-4-yl)-2-(4,6-dimethylpyrazolo[1,5-a]pyrazin-2-yl)-4H-pyrido[1,2-a]pyrimidin-4-one], for which the melting point lay within 189 to 191 °C. In addition, the EC (1.5-fold increase) in data set [1] is under 0.1 µM. Moreover, in data set [2], the “EC1.5x for Smn protein expression” value is on record as “**** (an EC1.5x≤0.3 μM is indicated by four stars (****))” and the “maximum fold (Fold) increase” value is recorded as “***** (a fold increase >1.65 is indicated by five stars (*****))”.
Molecule `CCc1nc(C)cn2nc(-c3cc(=O)n4cc(N5CCN(C(C)C)[C@H](C)C5)ccc4n3)cc12` [Compound 643, 2-(4-ethyl-6-methylpyrazolo[1,5-a]pyrazin-2-yl)-7-[(3R)-3-methyl-4-(propan-2-yl)piperazin-1-yl]-4H-pyrido[1,2-a]pyrimidin-4-one] showed a melting point of 242 to 244 °C. For the same molecule, the EC (1.5-fold increase) in data set [1] is 0.1 to 0.3 µM. In data set [2], the “EC1.5x for Smn protein expression” value was “*** (an EC1.5× between >0.3 μM and ≤1 μM is indicated by three stars (***))”; the “maximum fold (Fold) increase” value is reported as “***** (a fold increase >1.65 is indicated by five stars (*****))”.
The molecule `CCc1nc(C)cn2nc(-c3cc(=O)n4cc(N5CCN(C6CC6)[C@H](C)C5)ccc4n3)cc12` [Compound 644, 7-[(3R)-4-cyclopropyl-3-methylpiperazin-1-yl]-2-(4-ethyl-6-methylpyrazolo[1,5-a]pyrazin-2-yl)-4H-pyrido[1,2-a]pyrimidin-4-one] yielded a melting point of 244 to 247 °C. In addition, the EC (1.5-fold increase) in data set [1] was 0.1 to 0.3 µM. In data set [2], the “EC1.5x for Smn protein expression” value was “*** (an EC1.5× between >0.3 μM and ≤1 μM is indicated by three stars (***))”; the “maximum fold (Fold) increase” value is recorded as “***** (a fold increase >1.65 is indicated by five stars (*****))”.
Take `CCc1nc(C)cn2nc(-c3cc(=O)n4cc(N5CCN(C6CCC6)[C@H](C)C5)ccc4n3)cc12` [Compound 645, 7-[(3R)-4-cyclobutyl-3-methylpiperazin-1-yl]-2-(4-ethyl-6-methylpyrazolo[1,5-a]pyrazin-2-yl)-4H-pyrido[1,2-a]pyrimidin-4-one]: the melting point is 261 to 264 °C. Also, in data set [1], the EC (1.5-fold increase) is under 0.1 µM. In addition, in data set [2], the “EC1.5x for Smn protein expression” value was “**** (an EC1.5x≤0.3 μM is indicated by four stars (****))” and the “maximum fold (Fold) increase” value is “***** (a fold increase >1.65 is indicated by five stars (*****))”.
`CCc1nc(C)cn2nc(-c3cc(=O)n4cc(N5CCN(C6COC6)[C@H](C)C5)ccc4n3)cc12` [Compound 646, 2-(4-ethyl-6-methylpyrazolo[1,5-a]pyrazin-2-yl)-7-[(3R)-3-methyl-4-(oxetan-3-yl)piperazin-1-yl]-4H-pyrido[1,2-a]pyrimidin-4-one] yielded a melting point of 216 to 219 °C. Also, the EC (1.5-fold increase) in data set [1] was 0.3 to 1 µM. For the same molecule, in data set [2], the “EC1.5x for Smn protein expression” value is “** (an EC1.5× between >1 μM and ≤3 μM is indicated by two stars (**))”; the “maximum fold (Fold) increase” value is reported as “***** (a fold increase >1.65 is indicated by five stars (*****))”.
